Measurements published in patent publication US11512053B2, “Arginine methyltransferase inhibitors and uses thereof” (priority 2013, dated 2022).
Where two headings read alike, the source gives them in different places.

Molecular target: T1, full-length human PRMT3 isoform 1 (GST-tagged) (Homo sapiens, UniProt O60678)
T1 construct: GST-tagged PRMT3; made in house; host or cells: E. coli BL21(DE3) Gold
Experiment: PRMT3 Biochemical Assay (3H-SAM Flashplate, peptide substrate)
Text: General Materials. S-adenosylmethionine (SAM), S-adenosylhomocysteine (SAH), bicine, Tween20, dimethylsulfoxide (DMSO), bovine skin gelatin (BSG),), isopropyl-β-D-thiogalactopyranoside (IPTG), and Tris(2-carboxyethyl)phosphine hydrochloride solution (TCEP) were purchased from Sigma-Aldrich at the highest level of purity possible. ^3H-SAM was purchase from American Radiolabeled Chemicals with a specific activity of 80 Ci/mmol. 384-well streptavidin Flashplates were purchased from PerkinElmer.
Substrates. Peptide containing the classic RMT substrate motif was synthesized with an N-terminal linker-affinity tag motif and a C-terminal amide cap by 21st Century Biochemicals. The peptide was purified by high-performance liquid chromatography (HPLC) to greater than 95% purity and confirmed by liquid chromatography mass spectrometry (LC-MS). The sequence was Biot-Ahx-[…]-amide (SEQ ID NO.:11).
Molecular Biology: Full-length human PRMT3 (NM_005788.3) isoform 1 transcript clone was amplified from an HEK 293 cDNA library and subcloned into pGEX-KG (GE Life Sciences). The resulting construct encodes an N-terminal GST tag and a thrombin cleavage sequence ([…] […] […] […] S) (SEQ ID NO.:12) fused directly to Cys 2 of PRMT3.
Protein Expression. E. coli (BL21(DE3) Gold, Stratagene) made competent by the CaCl2) method were transformed with the PRMT3 construct and ampicillin selection. Protein over-expression was accomplished by growing the PRMT3 expressing E. coli clone and inducing expression with 0.3 mM IPTG at 16° C. The culture was grown for 12 hours, harvested by centrifugation, and stored at −80° C. for purification.
Protein Purification. […] GST-tagged PRMT3 was eluted with 50 mM Tris, 2 mM glutathione, pH 7.1 and 50 mM Tris, 20 mM glutathione, pH 7.1. Pooled fractions were dialysed in 20 mM Tris, 50 mM NaCl, 5% glycerol, 1 mM EDTA, 1 mM DTT, pH7.5 (Buffer B) and applied to a Q Sepharose Fast Flow column. GST-tagged PRMT3 was eluted by 500 mM NaCl in buffer B. Pooled fractions were dialyzed in 25 mM phosphate buffer, 100 mM NaCl, 5% glycerol, 2 mM DTT, pH 6.8 (Buffer C) and loaded on to a ceramic hydroxyapatite column. GST-tagged PRMT3 eluted with 25-400 mM phosphate in buffer C. Protein was concentrated and buffer was exchanged to 20 mM Tris, 150 mM NaCl, 5% glycerol, 5 mM β-mercaptoethanol, pH7.8 by ultrafiltration. The purity of recovered protein was 70%.
General Procedure for PRMT3 Enzyme Assays on Peptide Substrates. The assays were all performed in a buffer consisting of 20 mM Bicine (pH=7.6), 1 mM TCEP, 0.005% BSG, and 0.002% Tween 20, prepared on the day of use. Compounds in 100% DMSO (1 ul) were spotted into a polypropylene 384-well V-bottom plates (Greiner) using a Platemate Plus outfitted with a 384-channel head (Thermo Scientific). DMSO (1 ul) was added to Columns 11, 12, 23, 24, rows A-H for the maximum signal control and 1 ul of SAH, a known product and inhibitor of PRMT3, was added to columns 11, 12, 23, 24, rows I-P for the minimum signal control. A cocktail (40 ul) containing the PRMT3 enzyme was added by Multidrop Combi (Thermo-Fisher). The compounds were allowed to incubate with PRMT3 for 30 min at room temperature, then a cocktail (10 ul) containing SAM and peptide was added to initiate the reaction (final volume=51 ul). The final concentrations of the components were as follows: PRMT3 was 0.5 nM, ^3H-SAM was 100 nM, non-radiolabeled SAM was 1.8 uM, peptide was 330 nM, SAH in the minimum signal control wells was 1 mM, and the DMSO concentration was 2%. The assays were stopped by the addition of potassium chloride (10 ul) to a final concentration of 100 mM. 50 ul of the reaction in the 384-well polypropylene plate was then transferred to a 384-well Flashplate and the biotinylated peptides were allowed to bind to the streptavidin surface for at least 1 hour before being washed once with 0.1% Tween20 in a Biotek ELx405 plate washer. […]

[1] = single experiment or average of multiple experiments

T1 sequence (O60678 with tags, fused parts or gaps): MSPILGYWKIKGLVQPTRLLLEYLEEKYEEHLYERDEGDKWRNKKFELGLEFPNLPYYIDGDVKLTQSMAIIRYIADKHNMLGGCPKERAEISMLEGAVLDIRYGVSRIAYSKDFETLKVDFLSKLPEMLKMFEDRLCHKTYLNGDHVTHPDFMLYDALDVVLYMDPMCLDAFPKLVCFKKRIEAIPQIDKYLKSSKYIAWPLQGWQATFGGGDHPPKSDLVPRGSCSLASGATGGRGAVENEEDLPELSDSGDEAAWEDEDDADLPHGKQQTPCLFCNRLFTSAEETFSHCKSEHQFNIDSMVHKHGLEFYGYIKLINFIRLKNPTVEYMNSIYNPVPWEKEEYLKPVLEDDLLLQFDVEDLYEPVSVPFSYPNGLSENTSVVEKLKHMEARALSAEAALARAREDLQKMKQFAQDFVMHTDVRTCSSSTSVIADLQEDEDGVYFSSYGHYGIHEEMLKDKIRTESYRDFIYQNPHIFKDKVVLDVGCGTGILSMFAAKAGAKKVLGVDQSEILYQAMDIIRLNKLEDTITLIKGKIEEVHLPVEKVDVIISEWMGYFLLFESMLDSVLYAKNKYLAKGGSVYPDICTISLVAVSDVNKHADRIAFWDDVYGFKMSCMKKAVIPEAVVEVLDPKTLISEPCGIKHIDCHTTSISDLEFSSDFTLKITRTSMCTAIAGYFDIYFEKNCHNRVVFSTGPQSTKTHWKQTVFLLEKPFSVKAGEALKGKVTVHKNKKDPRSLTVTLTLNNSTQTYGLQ

Structure (SMILES)	IC50 [1] [µM]	IC50 [µM]
CNCCN(C)Cc1c[nH]nc1C#Cc1cccc(OC)c1 [Compound 1]	6.83	
CNCCN(C)Cc1c[nH]nc1C#Cc1ccc(C(C)(C)C)cc1 [Compound 2]	3	
CNCCN(C)Cc1c[nH]nc1C#Cc1ccc(F)cc1 [Compound 4]	> 10	> 10
CNCCN(C)Cc1c[nH]nc1/C=C/c1ccc(-c2ccccc2)cc1 [Compound 5]	1.45	
CNCCN(C)Cc1c[nH]nc1/C=C/c1ccc(C(F)(F)F)cc1 [Compound 6]	3.94	
CNCCN(C)Cc1c[nH]nc1/C=C/c1ccc(OC)cc1 [Compound 7]	5.91	
Cc1ccc(/C=C/c2n[nH]cc2CN(C)CCN)cc1 [Compound 8]	5.81	
CN(CCN)Cc1c[nH]nc1C1=CCOCC1 [Compound 10]	> 10	> 10
COc1cc(/C=C/c2n[nH]cc2CN(C)CCN)cc(OC)c1 [Compound 11]	1.58	
CN(CCN)Cc1c[nH]nc1C1CC1 [Compound 12]	> 10	> 10
CN(CCN)Cc1c[nH]nc1/C=C/c1ccc(F)cc1F [Compound 13]	3.62	
CC(C)c1n[nH]cc1CN(C)CCN [Compound 21]	> 10	> 10
CN(CCN)Cc1c[nH]nc1/C=C/Cc1ccccc1 [Compound 24]	> 10	> 10

Continued, in another order:

IC50 [1] [µM]	Structure (SMILES)	IC50 [µM]
6.77	CN(CCN)Cc1c[nH]nc1/C=C/c1cc(C(F)(F)F)cc(C(F)(F)F)c1 [Compound 14]	
2.34	CN(CCN)Cc1c[nH]nc1/C=C/c1cc(F)cc(F)c1 [Compound 15]	
5.79	CN(CCN)Cc1c[nH]nc1/C=C/c1cccc(C(F)(F)F)c1 [Compound 16]	
2.36	COc1cccc(/C=C/c2n[nH]cc2CN(C)CCN)c1 [Compound 17]	
1.75	CN(CCN)Cc1c[nH]nc1/C=C/c1ccc(C(F)(F)F)cc1 [Compound 18]	
7.74	COC/C=C/c1n[nH]cc1CN(C)CCN [Compound 19]	
2.34	CN(CCN)Cc1c[nH]nc1/C=C/c1cccc(F)c1 [Compound 20]	
6.46	CN(CCN)Cc1c[nH]nc1C1CCCCC1 [Compound 22]	
9.65	CN(CCN)Cc1c[nH]nc1CCc1ccc(F)cc1 [Compound 23, N^1-((3-(4-fluorophenethyl)-1H-pyrazol-4-yl)methyl)-N^1-methylethane-1,2-diamine]	
